# Measurements as given in patent US20240216336A1, “CLOTRIMAZOLE AS A TREATMENT FOR IMMUNODEFICIENCY DISORDERS” (Northwestern University, priority 2020, published 2024).
# How the values were obtained:
# GAPDH [1] = biological target: T1, GAPDH (Mus musculus, UniProt P16858); assay: GAPDH activity normalized to total protein in BMDMs; format: cell-based; design: endogenous in cells; details: ±CGP3466 for 4 hrs
# Description: (§1) BMDMs were isolated from ΔE1HK1 and WT mice as previously reported (Rodriguez et al., 2019). Briefly, bone marrow was isolated from the tibia and femur of 8-10-week-old mice by puncturing one end of the femur and tibia with a 27g needle and placing it in a 0.5 ml tube with a hole punched in the bottom. The 0.5 ml tube containing the bone was then placed in a 1.75 ml tube and centrifuged at 5,000×g for 3.5 minutes. Bone marrow was then collected into the 1.75 ml tube and resuspend in 1 ml of RBC lysis buffer (abcam) for 1 minute and then transferred to a 50 ml tube with 4 ml RBC lysis buffer and incubated for 4 minutes. Next, 35 ml of PBS was added and centrifuged at 300×g for 5 min and supernatant was then decanted and cell pellet was re-suspended in complete RPMI with 20 ng/ml mCSF (Preprotech). Cells were counted using a hemocytometer and plated in 10 cm tissue culture plates at a density of 3-million cells/plate. Cells were cultured with 20 ng/mL mCSF to induce differentiation into BMDMs. […]
# (§2) The following kits were used according to the manufacturer's instructions: Promega NADP/NADPH quantification kit (G9081) and […] (G9071); Glyceraldehyde-3-Phosphate Dehydrogenase Activity Assay kit (abcam); ELISAs for IL-1β (DY401), IL-6 […].
# RAW264.7 cells = assay: Inflammatory cytokine mRNA expression (quantitative RT-PCR) in RAW264.7 cells; format: cell-based, mouse
# Description: (§3) RAW264.7 cells were a gift from Jason A. Wertheim MD, PhD. HepG2 and HEK293T cells were obtained from ATCC. RAW264.7, HEK293T, and HepG2 cells were cultured in Dulbecco's Modified Eagle's Medium (DMEM) (Corning) supplemented with 10% FBS (Atlanta Biologicals), 2 mM glutamine (HyClone), and 1 mM sodium pyruvate (Corning). […]
# (§4) RNA was isolated from cells or tissues using RNA-STAT60 (Teltest) followed by chloroform extraction and precipitation. Reverse transcription was carried out using qScript cDNA Synthesis Kit (Quanta Bio). The resulting cDNA was amplified quantitatively using PerfeCTa SYBR Green Mix (Quanta Bio) on a 7500 Fast Real-time PCR System (Applied Biosystems). The relative gene expression was determined using differences in Ct values between gene of interest and house-keeping control genes. Complete list of primers can be found in Key Reagents Table (Table 1).
# GAPDH [2] = biological target: T1, GAPDH; assay: GAPDH activity normalized to total protein in RAW264.7 cells; format: cell-based; design: endogenous in cells; host or cells: RAW264.7
# Description: as §3, §2
# BMDMs = assay: Inflammatory cytokine mRNA expression (quantitative RT-PCR) in BMDMs; format: cell-based, mouse; details: for increase in IL-1β mRNA levels in BMDMs of ΔE1HK1 mice / increase in IL-6 mRNA levels in BMDMs of ΔE1HK1 mice: 4 hr 6AN (1 mM) or OT (50 μM), ±LPS (200 ng/ml); for increase in IL-1β mRNA levels in IFN-γ primed BMDMs of ΔE1HK1 mice / increase in IL-6 mRNA levels in IFN-γ primed BMDMs of ΔE1HK1 mice: 16 hrs IFNγ priming, then 4 hrs LPS (200 ng/ml) ± 6AN (1 mM) or OT (50 μM)
# Description: BMDMs were isolated from ΔE1HK1 and WT mice as previously reported (Rodriguez et al., 2019). Briefly, bone marrow was isolated from the tibia and femur of 8-10-week-old mice by puncturing one end of the femur and tibia with a 27g needle and placing it in a 0.5 ml tube with a hole punched in the bottom. The 0.5 ml tube containing the bone was then placed in a 1.75 ml tube and centrifuged at 5,000×g for 3.5 minutes. Bone marrow was then collected into the 1.75 ml tube and resuspend in 1 ml of RBC lysis buffer (abcam) for 1 minute and then transferred to a 50 ml tube with 4 ml RBC lysis buffer and incubated for 4 minutes. Next, 35 ml of PBS was added and centrifuged at 300×g for 5 min and supernatant was then decanted and cell pellet was re-suspended in complete RPMI with 20 ng/ml mCSF (Preprotech). Cells were counted using a hemocytometer and plated in 10 cm tissue culture plates at a density of 3-million cells/plate. Cells were cultured with 20 ng/mL mCSF to induce differentiation into BMDMs. Media was changed every 2 days and BMDMs were harvested by scraping on day 6 and plated in 12 well plates at a density of 1-million cells/well for mRNA extraction experiments. BMDMs were stimulated in the same manner as peritoneal macrophages (LPS dose for BMDMs was 200 ng/ml).
# as §4
# BMDMs from ΔE1HK1 mice = assay: IL-1β ELISA from BMDM media; format: cell-based, mouse; details: 4 hrs LPS (200 ng/ml) ± 6AN (1 mM) or OT (50 μM), then 30 min ATP (2.5 mM)
# Description: as §1, with “cells/plate.” for “cells/plate. Cells were cultured with 20 ng/mL mCSF to induce differentiation into BMDMs.”
# […] Cell supernatant was collected and analyzed by ELISA according to manufacturer's instructions for IL-1β (DY401), IL-6 (DY406), and TNFα (DY410).
# as §2
# HK1 = biological target: T2, HK1 (Mus musculus, UniProt P17710); assay: Immunofluorescence of HK1 and mitochondria (MT-Red) with colocalization analysis; format: cell-based; details: WT BMDMs; CLT (20 μM)
# T2 construct: IF of HK1 and mitochondria (MT-Red) imaging in RAW264.7 cells±clotrimazole (CLT) (20 μM); endogenous in cells; the running text says WT BMDMs
# T2 sequence (P17710 1-918 isoform P17710-3): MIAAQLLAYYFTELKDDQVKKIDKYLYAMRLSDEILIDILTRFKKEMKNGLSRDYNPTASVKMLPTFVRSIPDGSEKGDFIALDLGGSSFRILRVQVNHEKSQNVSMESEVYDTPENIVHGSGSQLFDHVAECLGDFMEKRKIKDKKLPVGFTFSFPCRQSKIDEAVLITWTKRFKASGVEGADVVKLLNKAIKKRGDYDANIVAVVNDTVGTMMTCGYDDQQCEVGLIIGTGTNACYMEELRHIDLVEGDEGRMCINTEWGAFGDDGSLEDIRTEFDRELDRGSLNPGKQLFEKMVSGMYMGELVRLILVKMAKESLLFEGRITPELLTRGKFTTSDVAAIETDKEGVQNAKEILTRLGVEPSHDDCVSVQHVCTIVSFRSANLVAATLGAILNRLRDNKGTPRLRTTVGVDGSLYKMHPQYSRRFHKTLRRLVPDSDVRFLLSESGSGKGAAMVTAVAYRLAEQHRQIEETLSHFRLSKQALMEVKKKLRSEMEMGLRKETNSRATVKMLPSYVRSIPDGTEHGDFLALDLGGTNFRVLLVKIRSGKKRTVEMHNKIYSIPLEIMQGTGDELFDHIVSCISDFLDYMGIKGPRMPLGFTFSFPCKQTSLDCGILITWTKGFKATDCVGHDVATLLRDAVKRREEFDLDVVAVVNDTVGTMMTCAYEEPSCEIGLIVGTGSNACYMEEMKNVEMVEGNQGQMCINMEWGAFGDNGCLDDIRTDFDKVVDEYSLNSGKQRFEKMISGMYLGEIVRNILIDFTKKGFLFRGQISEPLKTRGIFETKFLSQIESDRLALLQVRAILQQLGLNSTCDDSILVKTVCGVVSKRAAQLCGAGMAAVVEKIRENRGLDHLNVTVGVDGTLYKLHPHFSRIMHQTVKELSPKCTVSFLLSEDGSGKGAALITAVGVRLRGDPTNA
# Description: Glass-bottom confocal dishes (35 mm; VWR) were coated with 60 nM fibronectin (Sigma-Aldrich), diluted in 0.1% gelatin overnight. Before plating cells, coated confocal dishes were washed twice with PBS. BMDMs (100,000 cells/well), PMs (100,000 cells/well), HepG2 (50,000 cells/well), or RAW264.7 (50,000 cells/well) cells were plated in their respective growth media (complete DMEM or RPMI) and allowed to settle overnight before immunofluorescence (IF) staining. For fixed cell immunofluorescence (IF), cells were plated in 6-well plates (Corning) containing 15 mm glass coverslips (Fisher-Scientific) coated in gelatin and fibronectin. Prior to fixation, growth media was removed and cells were washed 2× with PBS. Cells were fixed with 1 ml of ice-cold 4% formaldehyde for 10 min at room temperature (4% formaldehyde prepared from 16% stock and diluted in PBS). After fixing the cells, plates were washed with PBS 2× and permeabilized with 0.3% triton-X-100 in PBS for 10 min at room temperature. Then, cells were blocked with 10% FBS/PBS for 1 hour at room temperature and subsequently treated with primary antibody diluted in 10% FBS/PBS solution over-night. The next day, secondary antibody was diluted in 10% FBS/PBS at 1:1000 and incubated for 2 hrs at room temperature. […] Images were quantified using ImageJ.
# [3] = RAW264.7 cells, koningic acid, LPS
# [4] = CLT (20 μM) treated cells vs vehicle treated controls
# T1 sequence (P16858 whole entry): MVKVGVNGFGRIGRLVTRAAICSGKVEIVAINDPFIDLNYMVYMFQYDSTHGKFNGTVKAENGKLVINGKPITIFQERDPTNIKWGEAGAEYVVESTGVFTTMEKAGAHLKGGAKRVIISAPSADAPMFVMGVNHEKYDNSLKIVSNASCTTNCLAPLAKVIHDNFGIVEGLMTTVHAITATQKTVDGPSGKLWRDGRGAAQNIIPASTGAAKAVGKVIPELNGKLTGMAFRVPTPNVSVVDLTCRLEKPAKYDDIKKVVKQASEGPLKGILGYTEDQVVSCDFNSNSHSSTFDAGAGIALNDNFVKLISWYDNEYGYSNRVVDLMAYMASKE
smiles,measurement,setting,value
"C#CCN(C)CC1=Cc2ccccc2Oc2ccccc21.O=C(O)/C=C\C(=O)O [CGP3466, CGP 3466 maleate (CAS 200189-97-5)]",difference in GAPDH activity of BMDMs between WT and ΔE1HK1 mice,GAPDH [1],abolished
same,increase in IL-1β mRNA with LPS in RAW264.7 cells,RAW264.7 cells; ±LPS (200 ng/ml) and ±CGP3466 for 4 hrs,amplified
same,GAPDH activity in RAW264.7 cells,GAPDH [2]; LPS (200 ng/ml) ±CGP3466,decreased
same,IL-1β mRNA expression in WT BMDMs,"BMDMs; ±LPS and ±CGP3466 for 4 hrs, compared with ΔE1HK1 BMDMs",increased IL-1β mRNA expression in WT BMDMs to the level of the hyper-inflamed ΔE1HK1 BMDMs
"Cc1ncc(C[n+]2csc(CCO)c2C)c(=O)[nH]1 [OT, oxythiamine]","IL-1β protein release (ELISA), higher release in ΔE1HK1 BMDMs",BMDMs from ΔE1HK1 mice,reversed
same,increase in IL-1β mRNA levels in BMDMs of ΔE1HK1 mice,BMDMs,abolished
same,increase in IL-6 mRNA levels in BMDMs of ΔE1HK1 mice,BMDMs,abolished
same,increase in IL-1β mRNA levels in IFN-γ primed BMDMs of ΔE1HK1 mice,BMDMs,rescued
same,increase in IL-6 mRNA levels in IFN-γ primed BMDMs of ΔE1HK1 mice,BMDMs,rescued
CC(C)[C@H]1CC[C@@]2(CO2)[C@H]2C(=O)OCC(C(=O)O)=C[C@H]12 [koningic acid],IL-1β mRNA expression after LPS treatment,RAW264.7 cells; [3],increased
same,IL-6 mRNA expression after LPS treatment,RAW264.7 cells; [3],increased
same,TNFα mRNA expression after LPS treatment,RAW264.7 cells; [3],increased
"NC(=O)c1ccc(N)nc1 [6AN, 6-aminonicotinamide]","IL-1β protein release (ELISA), higher release in ΔE1HK1 BMDMs",BMDMs from ΔE1HK1 mice,reversed
same,increase in IL-1β mRNA levels in BMDMs of ΔE1HK1 mice,BMDMs,abolished
same,increase in IL-6 mRNA levels in BMDMs of ΔE1HK1 mice,BMDMs,abolished
same,increase in IL-1β mRNA levels in IFN-γ primed BMDMs of ΔE1HK1 mice,BMDMs,rescued
same,increase in IL-6 mRNA levels in IFN-γ primed BMDMs of ΔE1HK1 mice,BMDMs,rescued
"Clc1ccccc1C(c1ccccc1)(c1ccccc1)n1ccnc1 [CLT, Clotrimazole]",HK1 dislocation from the mitochondria,HK1,significant increase
same,IL-1β mRNA after LPS stimulation,RAW264.7 cells; [4],significant increase
same,IL-6 mRNA after LPS stimulation,RAW264.7 cells; [4],significant increase
same,TNFα mRNA after LPS stimulation,RAW264.7 cells; [4],significant increase
same,cytokine mRNA levels at baseline,"RAW264.7 cells; CLT (20 μM), no LPS",minimal change
same,"production of inflammatory cytokines including IL-1β, TNFα, and IL-6",RAW264.7 cells; macrophages in vitro (summary statement),elevated production
same,GAPDH activity in RAW264.7 cells after LPS treatment,GAPDH [2]; ±CLT (20 μM),significant decrease
